Data as given in patent US5023236A, “Factor VII/VIIA active site inhibitors” (Corvas, Inc., priority 1989, dated 1991).
Non-standard residues stand in square brackets, D forms with d. Residues, ends and D or L forms follow the SMILES beside them. *: point of attachment. Dansyl = CN(C)c1cccc2c(S(=O)(=O)*)cccc12; Tos = Cc1ccc(S(=O)(=O)*)cc1; CH2Cl = ClC*

Legend:
[1] = molecular target: T1, factor VII/VIIa in the binary complex with tissue factor (Homo sapiens, UniProt P08709); experiment: linked enzyme chromogenic assay of factor X activation (S2222) with factor VII and TF positive J82 cells; format: biochemical; conditions: for Relative potency Ki 5 (MU): P3 side chain of peptide P3-Thr-Arg, one unit = inverse of the molar concentration at 5% inhibition of factor X activation; for Peptide (Ki 5): free peptide; for Peptide (Ki 5) / Peptidyl-CMK (Ki 5): inverse of molar concentration at 5% inhibition of factor X activation; for inhibitory activity (in words): peptides with R3 side chain on threonyl-arginine; for Ki 5: peptidyl chloromethyl ketones, Table 3; for Peptidyl-CMK (Ki 5): chloromethyl ketone analogue; for IC50: concentration required for 50% inhibition of the rate of factor X activation, column beside Peptidyl-CMK, read-out: Ki 50 (the source's name)
T1 construct: purified human factor VII (1 nM), purified as described by Fair, D; from tissue; TF endogenous on J82 cells (ATCC HTB1)
Method: Relative potency is expressed as megaunits (MU), where one unit is equal
to the inverse of the molar concentration at 5% inhibition of factor X
activation. Quantitation of inhibition of factor VII/VIIa in the binary
complex with tissue factor was performed in a linked enzyme chromogenic
assay using factor X, purified as described by Schwartz, B. S. et al.
(1981) J. Clin. Invest. 67:1650, and the chromogenic substrate S2222
(Helena Labs, Beaumont, Texa s). Briefly, the peptides were preincubated
with purified human factor VII (1 nM), purified as described by Fair, D.
incubation at room temperature 25 μl of 20 mM CaCl2, 1 ×
10^5 TF positive human bladder carcinoma derived J82 cells (available
from American Type Culture Collection, Rockville, Maryland, under
Accession No. ATCC HTB1), 25 μl of purified human factor human factor
(100 .eta.M) in 50 μl of TRIS buffered saline and 50 μl of 2 mM
S2222 was added. The use of J82 cells is an important feature of these in
vitro assays because they produce significant levels of TF for the
formation of active TF:VII/VIIa. The rate of conversion of factor X to Xa
was monitored kinetically by determination of the chromogenic product of
Inhibition by the compounds of this invention of the proteolytic activity of [TF:VII/VIIa] on factor X was analyzed by a chromogenic assay in which the substrate S-2222 is cleaved by the generated factor Xa. […] Analyses included the absence of effect of all such compounds on factor Xa, an enzyme closely homologous to factor VII and VIIa. […]

[2] = molecular target: T2, [TF:VII/VIIa] complex (Homo sapiens, UniProt P08709); experiment: clotting inhibition of normal human plasma with J82 cells; format: biochemical
T2 construct: from tissue; host or cells: normal human plasma (factor VII); J82 cells (endogenous TF)
Method: Normal human plasma was diluted 1:3 by volume with 0.02 M Na Citrate, 0.14M NaCl pH 7.4 in a glass tube. Diluted plasma (100μl) was then mixed with 100μl of J82 cells at 1×10^6 cells/ml and 100 μl of inhibitor. Plasma clotting times were obtained by visual observation of initial turbidity following addition of 100 μl of 20 mM calcium chloride. Human plasma clotting times were also expressed as calculated milli-units of TF activity (assuming no inhibitor present).

T1 sequence (P08709 213-466 limits assumed): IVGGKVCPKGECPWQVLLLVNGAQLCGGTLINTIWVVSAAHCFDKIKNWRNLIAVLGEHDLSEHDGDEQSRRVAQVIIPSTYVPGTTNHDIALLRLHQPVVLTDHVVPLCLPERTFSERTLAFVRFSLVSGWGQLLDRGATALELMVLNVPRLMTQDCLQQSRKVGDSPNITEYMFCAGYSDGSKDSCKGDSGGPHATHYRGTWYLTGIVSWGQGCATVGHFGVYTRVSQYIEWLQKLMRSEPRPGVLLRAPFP
T1 sequence (P08709 61-212 partner limits assumed): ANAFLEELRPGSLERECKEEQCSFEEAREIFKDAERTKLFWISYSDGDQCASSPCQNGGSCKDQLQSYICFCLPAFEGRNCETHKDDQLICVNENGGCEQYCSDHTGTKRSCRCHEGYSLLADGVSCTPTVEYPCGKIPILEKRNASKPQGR
T1 sequence (P13726 33-295 partner): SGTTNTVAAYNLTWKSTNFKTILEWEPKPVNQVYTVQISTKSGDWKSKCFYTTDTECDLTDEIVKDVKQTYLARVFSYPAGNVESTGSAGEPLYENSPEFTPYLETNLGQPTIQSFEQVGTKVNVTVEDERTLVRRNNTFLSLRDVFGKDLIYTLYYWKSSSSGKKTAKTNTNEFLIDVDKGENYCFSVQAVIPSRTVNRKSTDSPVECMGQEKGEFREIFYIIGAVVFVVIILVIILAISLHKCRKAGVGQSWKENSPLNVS
T2 sequence (P08709 213-466 limits assumed): as the sequence (P08709 213-466 limits assumed) above
T2 sequence (P08709 61-212 partner limits assumed): as the sequence (P08709 61-212 partner limits assumed) above
T2 sequence (P13726 33-295 partner): as the sequence (P13726 33-295 partner) above

| SMILES | inhibitory activity (in words) [1] | Ki 5 [1] [MU] | other results |
| --- | --- | --- | --- |
| C[C@@H](O)[C@H](NC(=O)[C@@H](N)CC(N)=O)C(=O)N[C@@H](CCCNC(=N)N)C(=O)O [Example 1, H-L-Asn-L-Thr-L-Arg] (H-Asn-Thr-Arg-OH) |  |  | Relative potency Ki 5 (MU) [1]: 6.7 MU |
| C[C@@H](O)[C@H](NC(=O)[C@@H](N)CC(=O)O)C(=O)N[C@@H](CCCNC(=N)N)C(=O)O [Example 2, H-L-Asp-L-Thr-L-Arg] (H-Asp-Thr-Arg-OH) |  |  | Relative potency Ki 5 (MU) [1]: 4.8 MU |
| C[C@@H](O)[C@H](NC(=O)[C@@H](N)Cc1c[nH]cn1)C(=O)N[C@@H](CCCNC(=N)N)C(=O)O [Example 3, H-L-His-L-Thr-L-Arg] (H-His-Thr-Arg-OH) |  |  | Relative potency Ki 5 (MU) [1]: 6.2 MU; Peptide (Ki 5) [1]: 6.2 MU |
| CC(C)C[C@H](N)C(=O)N[C@H](C(=O)N[C@@H](CCCNC(=N)N)C(=O)O)[C@@H](C)O [Example 4, H-L-Leu-L-Thr-L-Arg] (H-Leu-Thr-Arg-OH) |  |  | Relative potency Ki 5 (MU) [1]: 4.5 MU; Peptide (Ki 5) [1]: 4.5 MU |
| C[C@@H](O)[C@H](N)C(=O)N[C@H](C(=O)N[C@@H](CCCNC(=N)N)C(=O)O)[C@@H](C)O [Example 5, H-L-Thr-L-Thr-L-Arg] (H-Thr-Thr-Arg-OH) |  |  | Relative potency Ki 5 (MU) [1]: 2.6 MU |
| C[C@@H](O)[C@H](NC(=O)[C@@H](N)CCC(N)=O)C(=O)N[C@@H](CCCNC(=N)N)C(=O)O [Example 6, H-L-Gln-L-Thr-L-Arg] (H-Gln-Thr-Arg-OH) |  |  | Relative potency Ki 5 (MU) [1]: 2.5 MU |
| C[C@@H](O)[C@H](N)C(=O)N[C@@H](CCCNC(=N)N)C(=O)O [Example 7, H-L-Thr-L-Arg] (H-Thr-Arg-OH) | slight activity |  | Relative potency Ki 5 (MU) [1]: 2.0 MU |
| C[C@@H](O)[C@H](NC(=O)[C@@H](N)CC(N)=O)C(=O)N[C@@H](CCCNC(=N)N)C(=O)CCl [Example 8, H-L-Asn-L-Thr-L-Arg-CMK] (H-Asn-Thr-Arg-CH2Cl) |  | 44 |  |
| C[C@@H](O)[C@H](NC(=O)[C@@H](N)CC(=O)O)C(=O)N[C@@H](CCCNC(=N)N)C(=O)CCl [Example 9, H-L-Asp-L-Thr-L-Arg-CMK] (H-Asp-Thr-Arg-CH2Cl) |  | 60 |  |
| C[C@@H](O)[C@H](NC(=O)[C@@H](N)Cc1c[nH]cn1)C(=O)N[C@@H](CCCNC(=N)N)C(=O)CCl [Example 10, H-L-His-L-Thr-L-Arg-CMK] (H-His-Thr-Arg-CH2Cl) |  | 54 | Peptidyl-CMK (Ki 5) [1]: 54.0 MU; IC50 [1]: 120 µM |
| CC(C)C[C@H](N)C(=O)N[C@H](C(=O)N[C@@H](CCCNC(=N)N)C(=O)CCl)[C@@H](C)O [Example 11, H-L-Leu-L-Thr-L-Arg-CMK] (H-Leu-Thr-Arg-CH2Cl) |  | 68 | Peptidyl-CMK (Ki 5) [1]: 67.5 MU; IC50 [1]: 95 µM; inhibition at 3 µM ([2]; LTR-CMK final conc 3 μM): 5.3%; inhibition at 30 µM ([2]; LTR-CMK final conc 30 μM): 41%; inhibition at 300 µM ([2]; LTR-CMK final conc 300 μM): 75% |
| CC(C)C[C@@H](N)C(=O)N[C@H](C(=O)N[C@@H](CCCNC(=N)N)C(=O)CCl)[C@@H](C)O [Example 15, H-D-Leu-L-Thr-L-Arg-CMK] (H-[dL]-Thr-Arg-CH2Cl) |  | 100 |  |
| C[C@@H](O)[C@H](NC(=O)[C@H](N)Cc1ccccc1)C(=O)N[C@@H](CCCNC(=N)N)C(=O)CCl [Example 16, H-D-Phe-L-Thr-L-Arg-CMK] (H-[dF]-Thr-Arg-CH2Cl) |  | 42 |  |
| CC(=O)N[C@@H](CC(C)C)C(=O)N[C@H](C(=O)N[C@@H](CCCNC(=N)N)C(=O)CCl)[C@@H](C)O [Example 17, Ac-L-Leu-L-Thr-L-Arg-CMK] (Ac-Leu-Thr-Arg-CH2Cl) |  | 60 |  |
| Cc1ccc(S(=O)(=O)N[C@@H](CC(C)C)C(=O)N[C@H](C(=O)N[C@@H](CCCNC(=N)N)C(=O)CCl)[C@@H](C)O)cc1 [Example 18, Tosyl-L-Leu-L-Thr-L-Arg-CMK] (Tos-Leu-Thr-Arg-CH2Cl) |  | 60 |  |
| CC(C)C[C@H](NS(=O)(=O)c1cccc2c(N(C)C)cccc12)C(=O)N[C@H](C(=O)N[C@@H](CCCNC(=N)N)C(=O)CCl)[C@@H](C)O [Example 19, Dansyl-L-Leu-L-Thr-L-Arg-CMK] (Dansyl-Leu-Thr-Arg-CH2Cl) |  | 35 |  |
| CC(C)C[C@H](N)C(=O)N[C@@H](CO)C(=O)N[C@@H](CCCNC(=N)N)C(=O)CCl [Example 20, H-L-Leu-L-Ser-L-Arg-CMK] (H-Leu-Ser-Arg-CH2Cl) |  | 60 |  |
| CC(C)C[C@H](N)C(=O)N1CCC[C@H]1C(=O)N[C@@H](CCCNC(=N)N)C(=O)CCl [Example 21, H-L-Leu-L-Pro-L-Arg-CMK] (H-Leu-Pro-Arg-CH2Cl) |  | 60 |  |
| N=C(N)NCCC[C@H](NC(=O)[C@H](CO)NC(=O)[C@@H](N)CC(N)=O)C(=O)CCl [Example 22, H-L-Asn-L-Ser-L-Arg-CMK] (H-Asn-Ser-Arg-CH2Cl) |  | 60 |  |
| C[C@@H](O)[C@H](NC(=O)[C@@H](N)CCC(=O)O)C(=O)N[C@@H](CCCNC(=N)N)C(=O)O [glutamyl] (H-Glu-Thr-Arg-OH) | inactive |  |  |
| C[C@@H](O)[C@H](NC(=O)CN)C(=O)N[C@@H](CCCNC(=N)N)C(=O)O [glycyl] (H-Gly-Thr-Arg-OH) | inactive |  |  |
| CC[C@H](C)[C@H](N)C(=O)N[C@H](C(=O)N[C@@H](CCCNC(=N)N)C(=O)O)[C@@H](C)O [isoleucyl] (H-Ile-Thr-Arg-OH) | inactive |  |  |
| CSCC[C@H](N)C(=O)N[C@H](C(=O)N[C@@H](CCCNC(=N)N)C(=O)O)[C@@H](C)O [methionyl] (H-Met-Thr-Arg-OH) | inactive |  |  |
| C[C@@H](O)[C@H](NC(=O)[C@@H](N)Cc1ccccc1)C(=O)N[C@@H](CCCNC(=N)N)C(=O)O [phenylalanyl] (H-Phe-Thr-Arg-OH) | inactive |  |  |
| C[C@@H](O)[C@H](NC(=O)[C@@H]1CCCN1)C(=O)N[C@@H](CCCNC(=N)N)C(=O)O [prolyl] (H-Pro-Thr-Arg-OH) | inactive |  |  |
| C[C@@H](O)[C@H](NC(=O)[C@@H](N)CO)C(=O)N[C@@H](CCCNC(=N)N)C(=O)O [seryl] (H-Ser-Thr-Arg-OH) | inactive |  |  |
| C[C@@H](O)[C@H](NC(=O)[C@@H](N)Cc1c[nH]c2ccccc12)C(=O)N[C@@H](CCCNC(=N)N)C(=O)O [tryptophanyl] (H-Trp-Thr-Arg-OH) | inactive |  |  |
| C[C@@H](O)[C@H](NC(=O)[C@@H](N)Cc1ccc(O)cc1)C(=O)N[C@@H](CCCNC(=N)N)C(=O)O [tyrosyl] (H-Tyr-Thr-Arg-OH) | inactive |  |  |
| CC(C)[C@H](N)C(=O)N[C@H](C(=O)N[C@@H](CCCNC(=N)N)C(=O)O)[C@@H](C)O [valyl] (H-Val-Thr-Arg-OH) | inactive |  |  |
